Experimental data published in US10111426B2, “Biocidal materials” (priority 2011, dated 2018).

Assay: ultimate aerobic biodegradability in aqueous medium, OECD method 301 B
Conditions: on the fourteenth day / after 14 days
Description: This test is an evaluation, in aqueous medium, of the ultimate aerobic biodegradability of a sample of the concentrated formulation according to the invention. This test is carried out according to the provisions of OECD method 301 B at the concentration of […] corresponding to an organic carbon content of 10 mg/l. The theoretical amount of carbon dioxide formed (CO2Th) in the “concentrated disinfectant detergent for floors, surfaces and materials at 10 mg/l of DOC” test is equal to 33.0 mg/l.
The physicochemical analysis is carried out according to standard ASTM D5291.
FIG. 1 represents the curves of results of degradation with respect to CO2Th.

CC(=O)[O-].[Na+] [sodium acetate]
percentage degradation: 81%
